Results published in US11840686B2, “Modulation of prekallikrein (PKK) expression” (Ionis Pharmaceuticals, Inc., priority 2013, dated 2023).
Strand notation (5' to 3'): a small letter for the sugar, then the base; units joined by * are phosphorothioate-linked, units joined directly phosphodiester-linked; [ ] holds rarer units or linkages, { } end groups; capitals alone tell only the bases. e = 2'-O-(2-methoxyethyl) (MOE); [5mC] = 5-methylcytosine; d = 2'-deoxy (DNA)

Test system: human PKK mRNA
Test: Antisense inhibition of human PKK mRNA in HepaRG cells, 5,000 nM (Example 2)
Type: cell-based
Outline: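 HepaRG cells, 20,000 per well, were electroporated with 5,000 nM MOE gapmer (phosphorothioate, 5-methylcytosine) and incubated about 24 hours. PKK mRNA was quantified by qRT-PCR with primer probe set RTS3454, normalized to RIBOGREEN total RNA, and expressed as percent inhibition versus untreated controls.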

[1] = HepaRG cells, electroporation with 5,000 nM antisense oligonucleotide, approximately 24 hours, PKK mRNA by RT-PCR (RTS3454), relative to untreated control cells, Table 5 experiment
[2] = human PKK mRNA, HepaRG cells, 5-10-5 motif oligonucleotides targeting SEQ ID NO: 1 and 10
[3] = HepaRG cells, 5,000 nM antisense oligonucleotide, 5-10-5 gapmers, Table 17
[4] = HepaRG cells, electroporation, 5,000 nM antisense oligonucleotide, approx. 24 hours, primer probe set RTS3454, relative to untreated control cells, Table 11
[5] = HepaRG cells, electroporation, 5,000 nM antisense oligonucleotide, approx. 24 hours, primer probe set RTS3454, relative to untreated control cells, Table 12
[6] = Table 13, human PKK mRNA in HepaRG cells, 5-10-5 gapmers
[7] = Table 9 experiment, HepaRG cells, 20,000 cells per well, electroporation with 5,000 nM antisense oligonucleotide, approx. 24 hours, PKK mRNA by RT-PCR (RTS3454), relative to untreated control cells
[8] = Table 10 experiment, HepaRG cells, 20,000 cells per well, electroporation with 5,000 nM antisense oligonucleotide, approx. 24 hours, PKK mRNA by RT-PCR (RTS3454), relative to untreated control cells
[9] = human PKK mRNA in HepaRG cells, 5-10-5 gapmers, Table 14
[10] = HepaRG cells, electroporation with 5,000 nM antisense oligonucleotide, approximately 24 hours, PKK mRNA by RT-PCR (RTS3454), relative to untreated control cells, Table 6 experiment
[11] = Table 8, HepaRG cells, electroporation with 5,000 nM antisense oligonucleotide, approx. 24 hours, PKK mRNA by RT-PCR (RTS3454), relative to untreated control cells
[12] = Table 7, HepaRG cells, electroporation with 5,000 nM antisense oligonucleotide, approx. 24 hours, PKK mRNA by RT-PCR (RTS3454), relative to untreated control cells

## 547289 (antisense eT*eT*e[5mC]*eA*eT*dA*dG*dA*dG*dT*dT*dG*dA*dG*dT*e[5mC]*eA*eG*eA*e[5mC]) [compound 547289]
[1]
  % inhibition: 74%

## 547661 (eT*eA*eA*e[5mC]*eT*dA*dT*dA*dA*d[5mC]*dA*dG*dT*dA*dT*e[5mC]*eA*e[5mC]*e[5mC]*eG; antisense) [compound 547661]
[2]
  % inhibition: 80%

## 547667 (eT*eA*eT*e[5mC]*eA*d[5mC]*dT*dG*dT*dA*d[5mC]*d[5mC]*dT*dA*dT*eA*eA*e[5mC]*eT*eA; antisense) [compound 547667]
[2]
  % inhibition: 55%

## 547772 (antisense e[5mC]*eT*eG*eT*eG*d[5mC]*dT*d[5mC]*d[5mC]*d[5mC]*dG*dG*d[5mC]*d[5mC]*dA*eT*eT*eA*eG*e[5mC]) [compound 547772]
[3]
  % inhibition: 0%

## 547290 (antisense eA*eG*e[5mC]*eT*eA*d[5mC]*dA*dT*d[5mC]*d[5mC]*d[5mC]*d[5mC]*dA*d[5mC]*d[5mC]*eT*e[5mC]*eT*eG*eA) [compound 547290]
[1]
  % inhibition: 76%

## 546378 (antisense eT*eT*eT*eG*e[5mC]*dA*dG*dA*dT*dG*dA*dG*dG*dA*d[5mC]*e[5mC]*e[5mC]*e[5mC]*e[5mC]*e[5mC]) [compound 546378]
[4]
  % inhibition: 79%

## 547489 (antisense eA*eG*eA*e[5mC]*eA*d[5mC]*d[5mC]*dA*dG*dG*dT*dT*dG*d[5mC]*dT*e[5mC]*e[5mC]*e[5mC]*eT*eG) [compound 547489]
[4]
  % inhibition: 34%

## 548732 (DNA eA*e[5mC]*eT*eG*dT*dA*d[5mC]*dT*dA*dG*dT*dT*dT*d[5mC]*e[5mC]*eT*eA; antisense) [compound 548732]
Human PKK mRNA, HepaRG cells, 5,000 nM antisense oligonucleotide, Table 18
  % inhibition: 36%

## 546492 (e[5mC]*eT*e[5mC]*eG*e[5mC]*d[5mC]*dT*dT*dT*dG*dT*dG*dA*d[5mC]*dT*e[5mC]*eG*eA*eT*eT; antisense) [compound 546492]
[5]
  % inhibition: 61%

## 547305 (antisense eA*e[5mC]*e[5mC]*eA*eA*dA*d[5mC]*d[5mC]*dT*dT*dT*dT*d[5mC]*dT*d[5mC]*e[5mC]*eA*eT*eG*eT) [compound 547305]
[1]
  % inhibition: 47%

## 546791 (eG*eA*eT*eG*e[5mC]*dA*dT*dG*d[5mC]*dA*dG*d[5mC]*dA*dA*dT*eA*e[5mC]*eA*eG*eG; antisense) [compound 546791]
[6]
  % inhibition: 52%

## 547529 (antisense eA*e[5mC]*eA*e[5mC]*eA*d[5mC]*dA*dG*dT*d[5mC]*dA*dT*dG*dG*dA*eG*eA*eT*e[5mC]*eT) [compound 547529]
[5]
  % inhibition: 49%

## 546529 (eG*e[5mC]*eA*e[5mC]*e[5mC]*dT*dG*dG*d[5mC]*dA*dG*dA*dA*d[5mC]*dA*eG*eT*eA*e[5mC]*e[5mC]; antisense) [compound 546529]
HepaRG cells, 5,000 nM antisense oligonucleotide, 5-10-5 gapmers, Table 16
  % inhibition: 65%

## 547452 (antisense eG*eT*eT*eT*eT*dG*dG*dT*dG*dA*dA*dT*dA*dA*dT*eA*eA*eT*e[5mC]*eT) [compound 547452]
[7]
  % inhibition: 47%
[8]
  % inhibition: 62%

## 547610 (antisense eT*eG*eT*eA*eA*d[5mC]*dA*dG*dT*dA*dT*d[5mC]*dA*d[5mC]*dT*eG*eT*eA*e[5mC]*eT) [compound 547610]
[9]
  % inhibition: 45%

## 547324 (antisense e[5mC]*eA*eT*eT*eG*d[5mC]*dT*dT*d[5mC]*dA*dA*dG*dG*dA*dA*eT*eG*eT*e[5mC]*e[5mC]) [compound 547324]
[10]
  % inhibition: 76%

## 547352 (antisense e[5mC]*e[5mC]*eG*eG*eT*dA*d[5mC]*dT*d[5mC]*dT*dG*d[5mC]*d[5mC]*dT*dT*eG*eT*eG*eA*eA) [compound 547352]
[10]
  % inhibition: 94%

## 546887 (e[5mC]*e[5mC]*eT*eA*eT*dG*dT*d[5mC]*dA*d[5mC]*dT*dG*dT*dA*d[5mC]*e[5mC]*eT*eA*eT*eA; antisense) [compound 546887]
[2]
  % inhibition: 82%

## 546362 (antisense eT*e[5mC]*eA*eT*eG*d[5mC]*dT*dG*dG*dT*dG*dA*d[5mC]*dT*dG*e[5mC]*eA*eT*e[5mC]*eT) [compound 546362]
[4]
  % inhibition: 71%

## 547662 (eA*e[5mC]*e[5mC]*eT*eA*dT*dA*dA*d[5mC]*dT*dA*dT*dA*dA*d[5mC]*eA*eG*eT*eA*eT; antisense) [compound 547662]
[2]
  % inhibition: 0%

## 547670 (eT*eA*e[5mC]*eA*eA*d[5mC]*dT*dA*dT*dA*dA*d[5mC]*dA*dG*dT*eA*eT*e[5mC]*eA*e[5mC]; antisense) [compound 547670]
[2]
  % inhibition: 0%

## 546459 (eG*eT*eA*eG*e[5mC]*d[5mC]*dA*dT*dA*d[5mC]*dA*dT*d[5mC]*dT*dG*eA*eG*eG*eA*eA; antisense) [compound 546459]
[5]
  % inhibition: 46%

## 546259 (eA*e[5mC]*eT*eG*eA*d[5mC]*dA*dG*d[5mC]*dG*dA*dA*dT*d[5mC]*dA*eT*e[5mC]*eT*eT*eT; antisense) [compound 546259]
[11]
  % inhibition: 86%

## 548721 (DNA e[5mC]*eT*eG*dT*dA*d[5mC]*dT*dA*dG*dT*dT*dT*d[5mC]*e[5mC]*eT*eA*eT; antisense) [compound 548721]
HepaRG cells, 5,000 nM antisense oligonucleotide, human PKK mRNA, Table 18
  % inhibition: 27%

## 547742 (eA*eT*e[5mC]*eG*eG*dT*dG*dG*dT*dG*dG*dG*dA*dT*dT*eG*eG*eT*e[5mC]*eG; antisense) [compound 547742]
[3]
  % inhibition: 57%

## 547446 (antisense eT*eT*eG*eT*eG*dA*dG*dA*dA*dA*dG*dG*dT*dG*dT*eA*eT*e[5mC]*eT*eT) [compound 547446]
[11]
  % inhibition: 84%

## 547405 (e[5mC]*eA*eA*eA*eG*dT*d[5mC]*dA*dA*d[5mC]*dT*d[5mC]*d[5mC]*d[5mC]*dG*eG*eG*eT*eA*eA; antisense) [compound 547405]
[12]
  % inhibition: 47%

## 546866 (eG*eT*eT*eT*e[5mC]*d[5mC]*dT*dA*dT*dA*dA*d[5mC]*dT*dA*dT*eA*eA*e[5mC]*eA*eA; antisense) [compound 546866]
[9]
  % inhibition: 35%

## 547571 (eA*eA*eA*eT*eG*dA*d[5mC]*dA*d[5mC]*d[5mC]*dA*dA*dA*dA*dT*eT*eG*eA*eG*eT; antisense) [compound 547571]
[6]
  % inhibition: 14%

## 546356 (antisense eT*e[5mC]*e[5mC]*eA*eG*dT*d[5mC]*d[5mC]*dA*dT*dG*dT*dA*d[5mC]*dT*e[5mC]*eA*eG*e[5mC]*eG) [compound 546356]
[4]
  % inhibition: 60%

## 547594 (eG*eT*eT*eT*e[5mC]*d[5mC]*dT*dA*dT*dA*dA*d[5mC]*dT*dA*dT*eA*eA*e[5mC]*eA*eG; antisense) [compound 547594]
[9]
  % inhibition: 19%

## 547416 (e[5mC]*eT*eT*eA*e[5mC]*dA*dG*dT*d[5mC]*dT*dT*d[5mC]*dT*dG*dG*eG*eA*eG*eT*eA; antisense) [compound 547416]
[11]
  % inhibition: 79%

## 547474 (antisense eT*eG*eT*eA*eG*dA*dA*dT*dA*dT*dT*dT*dT*dG*dG*eA*eT*eT*eT*e[5mC]) [compound 547474]
[7]
  % inhibition: 51%
[8]
  % inhibition: 34%

## 546249 (e[5mC]*eT*eT*e[5mC]*eT*d[5mC]*d[5mC]*dT*d[5mC]*d[5mC]*dA*dA*dA*dG*dT*e[5mC]*eA*eA*e[5mC]*eT; antisense) [compound 546249]
[12]
  % inhibition: 68%

## 547535 (antisense eA*eG*eA*e[5mC]*eA*dG*d[5mC]*d[5mC]*d[5mC]*dA*d[5mC]*d[5mC]*dA*dA*d[5mC]*eA*eA*eT*e[5mC]*eT) [compound 547535]
[5]
  % inhibition: 28%
